Where “and” joins values, the source holds several entries; their conditions need not be identical. Equal entries are not always repeated.
Target: T1, HSL (Rattus norvegicus, UniProt P15304)
T1 construct: The partially purified HSL can be stored at −70° C. for 4 to 6 weeks; from tissue; host or cells: rat epididymal fat cells (male Wistar rats)
T1 sequence (P15304 1-768 isoform P15304-2): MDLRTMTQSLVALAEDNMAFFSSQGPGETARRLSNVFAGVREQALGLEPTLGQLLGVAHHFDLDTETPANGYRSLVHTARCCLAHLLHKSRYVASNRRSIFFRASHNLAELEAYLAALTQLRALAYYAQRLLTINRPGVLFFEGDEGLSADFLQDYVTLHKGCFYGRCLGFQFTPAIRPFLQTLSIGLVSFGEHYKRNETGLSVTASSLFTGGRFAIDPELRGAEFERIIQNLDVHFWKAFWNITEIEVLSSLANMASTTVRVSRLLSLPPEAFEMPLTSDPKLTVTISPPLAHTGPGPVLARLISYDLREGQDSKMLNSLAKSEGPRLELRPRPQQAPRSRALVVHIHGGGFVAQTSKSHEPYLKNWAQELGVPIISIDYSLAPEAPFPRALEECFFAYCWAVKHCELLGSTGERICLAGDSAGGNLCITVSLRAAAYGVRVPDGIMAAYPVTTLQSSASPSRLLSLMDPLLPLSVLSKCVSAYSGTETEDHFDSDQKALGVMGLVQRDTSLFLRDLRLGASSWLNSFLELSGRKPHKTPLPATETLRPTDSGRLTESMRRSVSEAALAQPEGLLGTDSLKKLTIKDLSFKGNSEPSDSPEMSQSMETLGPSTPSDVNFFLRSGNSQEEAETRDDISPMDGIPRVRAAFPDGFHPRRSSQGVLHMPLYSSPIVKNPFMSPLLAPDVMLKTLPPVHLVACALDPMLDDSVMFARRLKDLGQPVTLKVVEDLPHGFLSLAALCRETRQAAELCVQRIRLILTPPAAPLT
Assay: Indirect NAG assay (extinction increase at 481 nm)
Format: biochemical
Method: A typical reaction is carried out at 30° C. for 60 min, for example in 1.5 ml Eppendorf vessels or 96-hole plates. […] 180 μl of the substrate solution (20 μg/ml of phosphatidylcholine, 10 μg/ml of phosphatidylinositol, 50 μg/ml of NAG in assay buffer) are added. After a preincubation for 15 min at 30° C., 20 μl of HSL in assay buffer are pipetted in and the extinction is immediately measured (see above) at 481 nm in a cuvette photometer (0.5 ml cuvette) or microtiter plate reader. After a certain incubation time, which is variable and depends on the chosen enzyme concentration and can be between 2 and 240 minutes, in this case incubation at 30° C. for 60 min, the extinction is measured again. The increase in the extinction in the yellow region, in this case at 481 nm, is a measure of the enzyme activity.
Isolated rat fat cells are obtained from epididymal fatty tissue from untreated male rats (Wistar, 220-250 g) by collagenase treatment according to published processes. The fat cells from 10 rats are washed three times by flotation with 50 ml each of homogenization buffer ([…], pH 7.4, 0.25 M sucrose, 1 mM ethylenediamine-N,N,N′,N′-tetraacetic acid (EDTA), 1 mM dithiothreitol (DTT), 10 μg/ml of leupeptin, 10 μg/ml of antipain, 20 μg/ml of pepstatin) and finally taken up in 10 ml of homogenization buffer. The fat cells are homogenized in a Teflon-in-glass homogenizer (Braun-Melsungen) by 10 strokes at 1500 rpm and 15° C. The homogenizate is centrifuged (Sorvall SM24 tubes, 5000 rpm, 10 min, 4° C.). The […] between the overlying fatty layer and the pellet is removed and the centrifugation is repeated. The […] resulting from this is centrifuged again (Sorvall SM24 tubes, 20,000 rpm, 45 min, 4° C.). […] After incubation for 60 min at 4° C. (shake at intervals of 15 min), the batch is centrifuged (Sorvall SM24 tubes, 3000 rpm, 10 min, 4° C.). The supernatant is brought to pH 5.2 by addition of glacial acetic acid and incubated at 4° C. for 30 min. […] The suspension is dialyzed overnight at 4° C. against 25 mM TRIS/HCl, pH 7.4, 50% glycerol, 1 mM DTT, and 10 μg/ml of leupeptin, pepstatin, and antipain and then applied to a hydroxylapatite column (0.1 g per 1 ml of suspension, equilibrated with 10 mM potassium phosphate, pH 7.0, 30% glycerol, 1 mM DTT). The column is washed with four volumes of equilibration buffer at a flow rate of 20 to 30 ml/h. The HSL is eluted with a volume of equilibration buffer which contains 0.5 M potassium phosphate, then dialyzed (see above) and concentrated 5 to 10 times by ultrafiltration (Amicon Diaflo PM 10 filter) at 4° C. The partially purified HSL can be stored at −70° C. for 4 to 6 weeks.
6 mg of phosphatidylcholine and 6 mg of phosphatidylinositol are dissolved in 1 ml of chloroform each. 10 mg of NAG are dissolved in 1 ml of chloroform. […] The chloroform (225 μl total volume) is completely removed by overblowing with a stream of N2. The dried substrate can be stored at 4° C. for up to three days. For the preparation of the phospholipid vesicles/micelles having intercalated NAG (on the test day), the dried substrate is taken up in 20 ml of assay buffer (25 mM TRIS/HCl, pH 7.4; 150 mM NaCl) and two ultrasonic treatments with an ultrasonic probe (Branson Sonifier type 11, standard microtip): 1st treatment setting 2, 2×1 min, in between in each case 1 min on ice; 2nd treatment setting 4, 2×1 min, in between in each case 1 min on ice. […] Before use as a substrate (within the next 2 h), the solution is additionally incubated on ice for 15 min.
The assay is carried out at 30° C. for 60 min in 1.5 ml Eppendorf vessels or 96-hole plates.

Q: With `O=C(CCCCCCCCCCCNc1ccc([N+](=O)[O-])c2nonc12)OCC(O)CO` (racemic) [Compound 3] as the compound, how does the IC50 read?
A: The IC50 was 1520 nM and 2140 nM.
